PubChem BioAssay AID463136 (University of Pittsburgh Molecular Library Screening Center, 2010)
Results filed as inconclusive are left out. Calls of active or inactive are those of the source. The rule behind the calls is not given here.

Tests used:
[1] = blockers of dynein-driven microtubule transport – imaging, high-content imaging, dose response (AID 463136); details: HCS imaging, dynein-mediated cargo transport inhibition; inhibition at max concentration; at 50 µM; stronger effect = higher value;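 note: mouse mammary adenocarcinoma 3617.4 cells expressing GFP-tagged rat glucocorticoid receptor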; for inhibition: reference of the scale not given here
[2] = test system: HCS imaging, dynein-mediated cargo transport inhibition; experiment: as above

SMILES | inhibition [1] | IC50 [2]
CCN(CC)c1ccc(/C=C2/SC(=O)N(C(C)C)C2=O)o1 | 39.9% | > 50 µM (inactive)
O=C(NC1CCCCC1)C(c1cccnc1)N(C(=O)CCl)c1cccc(Cl)c1 (centres undefined) | 52.2% | 7.48 µM
N#CC(C#N)=C1C=CC=CN1/C(=C\c1ccco1)C(=O)c1ccccc1 | 19.2% | > 50 µM (inactive)
CCn1c(=O)c([N+](=O)[O-])c(Cl)c2ccccc21 | 83.9% | 30.3 µM
O=C1/C(=C/c2ccccc2[N+](=O)[O-])COc2ccccc21 | 39.6% | > 50 µM (inactive)
O=C(CCl)Nc1ccc(-c2ccccc2)cc1 | 66% | 14.3 µM
COc1cc(/C=C(/C(=O)c2cccs2)c2nc3ccccc3[nH]2)cc(OC)c1O | 61.2% | 13.8 µM
N#Cc1ccccc1Cn1cc(/C=C/[N+](=O)[O-])c2ccccc21 | 83.6% | 34.6 µM
CC(=O)OCCCNc1cc(SCc2ccco2)c2nonc2c1[N+](=O)[O-] | 67.7% | 35.1 µM
CCCCNc1ccc2c3c(cccc13)C(=O)N(CCCC)C2=O | 13.5% | > 50 µM (inactive)
CC[n+]1c(/C=C/C=C/N(C(C)=O)c2ccccc2)sc2ccccc21 | 99.6% | 1.08 µM
Cc1nc([N+](=O)[O-])c(Br)n1CC(=O)c1ccccc1 | 82.1% | 1.96 µM
O=C(/C=C/c1ccccn1)c1cc(Br)ccc1O | 69.4% | 28.3 µM
O=C(Cn1ncc(Cl)c(Cl)c1=O)N1CCN(Cc2ccccc2)CC1 | 62.9% | 5.63 µM
COc1ccc(OC)c(CCNC(=O)Cn2sc3nc(C)cc(C)c3c2=O)c1 | 93.6% | 29.1 µM
COC(=O)c1cc(=O)n(Cc2ccco2)c(=Nc2ccc(F)c(Cl)c2)s1 | 31.4% | > 50 µM (inactive)
O=C(OCn1ncc(Br)c(Br)c1=O)c1ccc(F)cc1 | 55% | 7.52 µM
COC(=O)c1cc(=O)n(Cc2ccc3c(c2)OCO3)c(=Nc2ccc(F)c(Cl)c2)s1 | 8.81% | > 50 µM (inactive)
O=C(/C(=C/c1ccc(Cl)cc1)c1nc2ccccc2[nH]1)c1ccccc1 | 21.4% | > 50 µM (inactive)
N#C/C(=C/c1ccc(N2CCCCC2)o1)C(=O)Nc1ccc2ccccc2c1 | 98.5% | 27.4 µM
O=C(COc1ccc(/C=C\[N+](=O)[O-])cc1)N1CCOCC1 | 13.7% | > 50 µM (inactive)

SMILES | inhibition [1] | IC50 [2]
O=C1NC(=O)N(c2ccccc2)C(=O)/C1=C\c1ccc([N+](=O)[O-])s1 | 85.5% | 14.4 µM
O=C1NC(=O)N(c2ccccc2)C(=O)/C1=C/c1ccc([N+](=O)[O-])s1 | 86.7% | 13.4 µM
C#CC(=O)N(c1cccc(OC)c1)C(C(=O)NC1CCCC1)c1cccs1 (centres undefined) | 16.5% | > 50 µM (inactive)
COc1ccc(-c2csc3nc(-c4ccccc4F)oc(=O)c23)cc1OC | 20.3% | > 50 µM (inactive)
O=C1C=C(c2ccc(Cl)cc2)C(=O)N1Nc1ccccc1 | 75.7% | 39.3 µM
CC(=O)/C(=C/c1ccccc1)C(=O)Nc1ccccc1C | 70.1% | 15.9 µM
Clc1ccc(-c2nnc(Sc3nc4ccccc4o3)c3ccccc23)cc1 | 83% | 39.3 µM
CC(=O)O[C@@H]1C[C@H]2C(C)(C)C(=O)C=C[C@]2(C)[C@H]2CC[C@@]3(C)[C@H](c4ccoc4)OC(=O)[C@H]4O[C@]43[C@@]21C | 77.9% | 33.6 µM
Cc1c(N=C2C=CC(=O)c3ccccc32)c(=O)n(-c2ccccc2)n1C | 76.4% | 39.6 µM
CC1(C)C[C@H]2C=C(C=O)[C@]3(C=O)C[C@]3(C)[C@H]2C1 | 78.6% | 12.9 µM
COc1cc(/C=C2\COC/C(=C\c3ccc(O)c(OC)c3)C2=O)ccc1O | 64.3% | 39.7 µM
CCOC(=O)c1c(NC(=O)CCl)sc(CN(C)C)c1-c1ccccc1 | 74.1% | 29.9 µM
CC1(C)CCSC(/C=C/c2ccccc2)=N1 | 92.6% | 18.7 µM
CCOC(=O)C(=Cc1ccc(F)cc1)C(=O)OCC | 73.4% | 27.8 µM
CCOC(=O)c1c(-c2ccc(C)cc2)csc1NC(=O)/C(C#N)=C/c1ccc(O)c(OC)c1 | 4.51% | > 50 µM (inactive)
CNCc1ccccc1Sc1cc(O)ccc1O | 74.1% | 38.5 µM
O=C(/C(=C/c1ccc(Cl)cc1)c1nc2ccccc2[nH]1)c1cccs1 | 81.7% | 24.9 µM
Cc1ccc(Sc2ccc(NC(=O)CCl)cc2)cc1C | 16.3% | > 50 µM (inactive)
Cc1ccc(N2C(=O)NC(=O)/C(=C\C=C\c3ccco3)C2=O)cc1C | 83.1% | 32.4 µM
CCN(CC)c1ccc2cc(-c3nc4ccccc4[nH]3)c(=O)oc2c1 | 98.9% | 21.9 µM
CCOc1cc(/C=C\[N+](=O)[O-])ccc1OCC(=O)N1CCOCC1 | 76.4% | 37.4 µM
